Experimental data reported in ChEMBL document CHEMBL5096235, “In Silico Exploration and Biological Evaluation of Bispecific Peptides Derived from Anti-HER2 Antibodies and Peptide-Camptothecin Conjugates for HER2-Positive Breast Cancer” (J Med Chem, 2022).
Activity calls are given as the source filed them. The rule behind the calls is not given here. Residues, ends and D or L forms follow the SMILES beside them. *: point of attachment. X1 = CC[C@@]1(OC(=O)CCCCCN2CC(=O)C(*)C2=O)C(=O)OCc2c1cc1n(c2=O)Cc2cc3ccccc3nc2-1; X2 = CC[C@@]1(OC(=O)CCS*)C(=O)OCc2c1cc1n(c2=O)Cc2cc3ccccc3nc2-1

How the values were obtained:
NCI-N87 = assay: Cytotoxicity against HER-positive human NCI-N87 cells assessed as inhibition of cell growth incubated for 48 hrs by MTT assay; assay type: functional, cell-based; conditions: NCI-N87, 48 h
[1] = Cytotoxicity against human MCF-10A cells assessed as inhibition of cell growth incubated for 48 hrs by MTT assay; assay type: toxicity, cell-based
SK-BR-3 = assay: Cytotoxicity against HER-positive human SK-BR-3 cells assessed as inhibition of cell growth incubated for 48 hrs by MTT assay; assay type: functional, cell-based; conditions: SK-BR-3, 48 h
SK-OV-3 = assay: Cytotoxicity against HER-positive human SK-OV-3 cells assessed as inhibition of cell growth incubated for 48 hrs by MTT assay; assay type: functional, cell-based; conditions: SK-OV-3, 48 h
MDA-MB-231 = assay: Cytotoxicity against HER-negative human MDA-MB-231 cells assessed as inhibition of cell growth incubated for 48 hrs by MTT assay; assay type: functional, cell-based; conditions: MDA-MB-231, 48 h
[2] = target: T1, Receptor tyrosine-protein kinase erbB-2 (Homo sapiens, UniProt P04626); assay: Binding affinity to HER2 in HER-positive human SK-BR-3 cells assessed as increase in fluorescence intensity at 25 uM by Hoechst 33342 staining based confocal microscopic analysis; assay type: cell-based
[3] = target: T1, Receptor tyrosine-protein kinase erbB-2; assay: Binding affinity to recombinant HER2 (unknown origin) assessed as dissociation constant by SPR analysis
[4] = Metabolic stability in Sprague-Dawley rat plasma assessed as half life incubated for 120 mins by LC-MS/MS analysis; assay type: ADME, cell-free
[5] = Metabolic stability in Sprague-Dawley rat plasma assessed as drug degradation incubated for 120 mins by LC-MS/MS analysis; assay type: ADME, cell-free; conditions: 2 h

T1 sequence (P04626 whole entry): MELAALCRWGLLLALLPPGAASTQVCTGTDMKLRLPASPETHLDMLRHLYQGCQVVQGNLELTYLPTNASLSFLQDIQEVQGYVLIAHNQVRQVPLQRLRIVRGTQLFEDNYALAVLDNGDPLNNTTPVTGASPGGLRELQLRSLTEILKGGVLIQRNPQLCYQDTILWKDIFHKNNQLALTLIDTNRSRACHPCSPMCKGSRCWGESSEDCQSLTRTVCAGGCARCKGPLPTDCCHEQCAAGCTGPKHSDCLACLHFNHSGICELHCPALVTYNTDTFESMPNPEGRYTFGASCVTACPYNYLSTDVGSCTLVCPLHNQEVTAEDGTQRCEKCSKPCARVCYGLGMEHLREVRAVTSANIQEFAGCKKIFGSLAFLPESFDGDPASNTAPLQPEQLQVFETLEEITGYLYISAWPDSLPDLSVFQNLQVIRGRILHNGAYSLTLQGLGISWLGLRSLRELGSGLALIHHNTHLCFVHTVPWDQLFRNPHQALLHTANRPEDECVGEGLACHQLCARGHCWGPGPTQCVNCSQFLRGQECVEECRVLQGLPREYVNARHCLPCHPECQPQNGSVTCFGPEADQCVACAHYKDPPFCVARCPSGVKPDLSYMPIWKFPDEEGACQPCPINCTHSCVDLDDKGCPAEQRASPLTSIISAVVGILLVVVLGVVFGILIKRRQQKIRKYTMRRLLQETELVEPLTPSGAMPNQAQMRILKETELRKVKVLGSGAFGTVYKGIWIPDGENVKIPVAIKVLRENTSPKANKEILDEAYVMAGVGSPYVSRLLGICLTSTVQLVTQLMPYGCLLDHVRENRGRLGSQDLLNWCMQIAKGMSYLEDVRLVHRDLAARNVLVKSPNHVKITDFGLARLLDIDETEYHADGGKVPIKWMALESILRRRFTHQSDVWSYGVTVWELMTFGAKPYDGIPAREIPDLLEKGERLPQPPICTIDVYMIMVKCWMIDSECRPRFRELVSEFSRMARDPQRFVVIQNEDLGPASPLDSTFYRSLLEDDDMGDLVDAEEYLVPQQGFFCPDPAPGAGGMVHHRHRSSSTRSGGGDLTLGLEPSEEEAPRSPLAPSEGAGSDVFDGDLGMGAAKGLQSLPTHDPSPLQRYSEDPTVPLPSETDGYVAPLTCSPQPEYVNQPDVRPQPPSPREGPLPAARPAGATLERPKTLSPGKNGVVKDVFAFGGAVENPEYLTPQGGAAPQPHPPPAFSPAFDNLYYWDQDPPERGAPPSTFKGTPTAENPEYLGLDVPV

Compound	IC50 (NCI-N87) [µM]	IC50 at 48 h [1] [µM]	IC50 (SK-BR-3) [µM]	IC50 (SK-OV-3) [µM]	IC50 (MDA-MB-231) [µM]	Kd [3] [µM]	also measured
CC[C@H](C)[C@H](NC(=O)[C@@H](N)CCCNC(=N)N)C(=O)N[C@@H](CCCCN)C(=O)N1CCC[C@H]1C(=O)N[C@@H](CCCNC(=N)N)C(=O)N[C@@H](CCCCN)C(=O)NCC(=O)N[C@@H](Cc1ccc(O)cc1)C(=O)N[C@H](C(=O)N[C@@H](CCCNC(=N)N)C(=O)NCC(=O)N[C@@H](CSSCCC(=O)O[C@]1(CC)C(=O)OCc2c1cc1n(c2=O)Cc2cc3ccccc3nc2-1)C(=O)NCC(=O)N[C@@H](CSSCCC(=O)O[C@]1(CC)C(=O)OCc2c1cc1n(c2=O)Cc2cc3ccccc3nc2-1)C(=O)NC(=O)C[C@H](NC(=O)CN)C(=O)N1CCC[C@H]1C(=O)N[C@@H](CC(N)=O)C(=O)N[C@@H](Cc1c[nH]c2ccccc12)C(=O)NCC(=O)N[C@@H](CCCNC(=N)N)C(=O)N[C@@H](CO)C(=O)N[C@@H](Cc1c[nH]c2ccccc12)C(=O)N[C@@H](Cc1ccc(O)cc1)C(=O)N[C@@H](CC(N)=O)C(=O)N[C@@H](CCC(N)=O)C(=O)N[C@@H](CCCNC(=N)N)C(=O)N[C@@H](Cc1ccccc1)C(=O)N[C@@H](CCCCN)C(N)=O)[C@@H](C)O	7.37	18.2	1.49	4.12	11.5		
CC[C@H](C)[C@H](NC(=O)[C@@H](N)CCCNC(=N)N)C(=O)N[C@@H](CCCCN)C(=O)N1CCC[C@H]1C(=O)N[C@@H](CCCNC(=N)N)C(=O)N[C@@H](CCCCN)C(=O)NCC(=O)N[C@@H](Cc1ccc(O)cc1)C(=O)N[C@H](C(=O)N[C@@H](CCCNC(=N)N)C(=O)NCC(=O)N[C@@H](CSC1C(=O)CN(CCCCCC(=O)O[C@]2(CC)C(=O)OCc3c2cc2n(c3=O)Cc3cc4ccccc4nc3-2)C1=O)C(=O)NCC(=O)N[C@@H](CSC1C(=O)CN(CCCCCC(=O)O[C@]2(CC)C(=O)OCc3c2cc2n(c3=O)Cc3cc4ccccc4nc3-2)C1=O)C(=O)NC(=O)C[C@H](NC(=O)CN)C(=O)N1CCC[C@H]1C(=O)N[C@@H](CC(N)=O)C(=O)N[C@@H](Cc1c[nH]c2ccccc12)C(=O)NCC(=O)N[C@@H](CCCNC(=N)N)C(=O)N[C@@H](CO)C(=O)N[C@@H](Cc1c[nH]c2ccccc12)C(=O)N[C@@H](Cc1ccc(O)cc1)C(=O)N[C@@H](CC(N)=O)C(=O)N[C@@H](CCC(N)=O)C(=O)N[C@@H](CCCNC(=N)N)C(=O)N[C@@H](Cc1ccccc1)C(=O)N[C@@H](CCCCN)C(N)=O)[C@@H](C)O (stereo not given in full)	10.9	25.2	6.72	20.4	28.2		
CC[C@H](C)[C@H](NC(=O)[C@H](CCCNC(=N)N)NC(=O)CNC(=O)[C@H](CS)NC(=O)CNC(=O)[C@H](CCCCN)NC(=O)[C@H](Cc1ccccc1)NC(=O)[C@H](CCCNC(=N)N)NC(=O)[C@H](CCC(N)=O)NC(=O)[C@H](CC(N)=O)NC(=O)[C@H](Cc1ccc(O)cc1)NC(=O)[C@H](Cc1c[nH]c2ccccc12)NC(=O)[C@H](CO)NC(=O)[C@H](CCCNC(=N)N)NC(=O)CNC(=O)[C@H](Cc1c[nH]c2ccccc12)NC(=O)[C@H](CC(N)=O)NC(=O)[C@@H]1CCCN1C(=O)[C@H](N)CC(=O)NC(=S)Nc1ccc2c(c1)C(=O)OC21c2ccc(O)cc2Oc2cc(O)ccc21)C(=O)N[C@@H](CCCCN)C(=O)N1CCC[C@@H]1C(=O)N[C@H](CCCNC(=N)N)C(=O)N[C@H](CCCCN)C(=O)NCC(=O)N[C@H](Cc1ccc(O)cc1)C(=O)N[C@@H](C(=O)N[C@H](CCCNC(=N)N)C(N)=O)[C@H](C)O							Activity [2]: Active
N=C(N)NCCC[C@H](NC(=O)CNC(=O)[C@H](Cc1c[nH]c2ccccc12)NC(=O)[C@H](CC(N)=O)NC(=O)[C@@H]1CCCN1C(=O)[C@@H](N)CC(N)=O)C(=O)N[C@@H](CO)C(=O)N[C@@H](Cc1c[nH]c2ccccc12)C(=O)N[C@@H](Cc1ccc(O)cc1)C(=O)N[C@@H](CC(N)=O)C(=O)N[C@@H](CCC(N)=O)C(=O)N[C@@H](CCCNC(=N)N)C(=O)N[C@@H](Cc1ccccc1)C(=O)N[C@@H](CCCCN)C(=O)O (H-NPNWGRSWYNQRFK-OH)						5.7	
CC[C@H](C)[C@H](NC(=O)[C@H](CCCNC(=N)N)NC(=O)CNC(=O)[C@H](CS)NC(=O)CNC(=O)[C@H](CS)NC(=O)CNC(=O)[C@H](CCCCN)NC(=O)[C@H](Cc1ccccc1)NC(=O)[C@H](CCCNC(=N)N)NC(=O)[C@H](CCC(N)=O)NC(=O)[C@H](CC(N)=O)NC(=O)[C@H](Cc1ccc(O)cc1)NC(=O)[C@H](Cc1c[nH]c2ccccc12)NC(=O)[C@H](CO)NC(=O)[C@H](CCCNC(=N)N)NC(=O)CNC(=O)[C@H](Cc1c[nH]c2ccccc12)NC(=O)[C@H](CC(N)=O)NC(=O)[C@@H]1CCCN1C(=O)[C@@H](N)CC(N)=O)C(=O)N[C@@H](CCCCN)C(=O)N1CCC[C@H]1C(=O)N[C@@H](CCCNC(=N)N)C(=O)N[C@@H](CCCCN)C(=O)NCC(=O)N[C@@H](Cc1ccc(O)cc1)C(=O)N[C@H](C(=O)N[C@@H](CCCNC(=N)N)C(=O)O)[C@@H](C)O (H-NPNWGRSWYNQRFKGCGCGRIKPRKGYTR-OH)						0.385	half-life [4]: 15 min; Stability [5]: Unstable
N=C(N)NCCC[C@H](NC(=O)[C@H](CCC(N)=O)NC(=O)[C@H](CC(N)=O)NC(=O)[C@H](Cc1ccc(O)cc1)NC(=O)[C@H](CCCNC(=N)N)NC(=O)[C@H](CO)NC(=O)[C@H](Cc1c[nH]c2ccccc12)NC(=O)CNC(=O)[C@H](Cc1c[nH]c2ccccc12)NC(=O)[C@H](CC(N)=O)NC(=O)[C@@H]1CCCN1C(=O)[C@@H](N)CC(N)=O)C(=O)N[C@@H](Cc1ccccc1)C(=O)N[C@@H](CCCCN)C(=O)O (H-NPNWGWSRYNQRFK-OH)						9.89	
N=C(N)NCCC[C@H](NC(=O)[C@H](CCC(N)=O)NC(=O)[C@H](CC(N)=O)NC(=O)[C@H](Cc1ccc(O)cc1)NC(=O)[C@H](Cc1c[nH]c2ccccc12)NC(=O)[C@H](CO)NC(=O)[C@H](Cc1c[nH]c2ccccc12)NC(=O)CNC(=O)[C@H](Cc1c[nH]c2ccccc12)NC(=O)[C@H](CC(N)=O)NC(=O)[C@@H]1CCCN1C(=O)[C@@H](N)CC(N)=O)C(=O)N[C@@H](Cc1ccccc1)C(=O)N[C@@H](CCCCN)C(=O)O (H-NPNWGWSWYNQRFK-OH)						8.9	
N=C(N)NCCC[C@H](NC(=O)[C@H](CCC(N)=O)NC(=O)[C@H](CC(N)=O)NC(=O)[C@H](Cc1ccc(O)cc1)NC(=O)[C@H](Cc1c[nH]c2ccccc12)NC(=O)[C@H](CO)NC(=O)[C@H](Cc1ccc(O)cc1)NC(=O)CNC(=O)[C@H](Cc1c[nH]c2ccccc12)NC(=O)[C@H](CC(N)=O)NC(=O)[C@@H]1CCCN1C(=O)[C@@H](N)CC(N)=O)C(=O)N[C@@H](Cc1ccccc1)C(=O)N[C@H](C=O)CCCCN (H-NPNWGYSWYNQRFK-aldehyde)						14.3	
N=C(N)NCCC[C@H](NC(=O)CNC(=O)[C@H](Cc1c[nH]c2ccccc12)NC(=O)[C@@H]1CCCN1C(=O)[C@@H]1CCCN1C(=O)[C@@H](N)CC(N)=O)C(=O)N[C@@H](CO)C(=O)N[C@@H](CCCNC(=N)N)C(=O)N[C@@H](Cc1ccc(O)cc1)C(=O)N[C@@H](CC(N)=O)C(=O)N[C@@H](CCC(N)=O)C(=O)N[C@@H](CCCNC(=N)N)C(=O)N[C@@H](Cc1ccccc1)C(=O)N[C@@H](CCCCN)C(=O)O (H-NPPWGRSRYNQRFK-OH)						12.3	
CC[C@H](C)[C@H](NC(=O)[C@@H](N)CCCNC(=N)N)C(=O)N[C@@H](CCCCN)C(=O)N1CCC[C@H]1C(=O)N[C@@H](CCCNC(=N)N)C(=O)N[C@@H](CCCCN)C(=O)NCC(=O)N[C@@H](Cc1ccc(O)cc1)C(=O)N[C@H](C(=O)N[C@@H](CCCNC(=N)N)C(=O)O)[C@@H](C)O (H-RIKPRKGYTR-OH)						7.6	
CC[C@H](C)[C@H](NC(=O)[C@@H](N)CCCNC(=N)N)C(=O)N[C@@H](CCCCN)C(=O)N1CCC[C@H]1C(=O)N[C@@H](CCCNC(=N)N)C(=O)N[C@@H](CCCCN)C(=O)NCC(=O)N[C@@H](Cc1ccc(O)cc1)C(=O)N[C@H](C(=O)N[C@@H](CCCNC(=N)N)C(=O)NCC(=O)N[C@@H](CSC1C(=O)CN(CCCCCC(=O)O[C@]2(CC)C(=O)OCc3c2cc2n(c3=O)Cc3cc4ccccc4nc3-2)C1=O)C(=O)NCC(=O)N[C@@H](CC(N)=O)C(=O)N1CCC[C@H]1C(=O)N[C@@H](CC(N)=O)C(=O)N[C@@H](Cc1c[nH]c2ccccc12)C(=O)NCC(=O)N[C@@H](CCCNC(=N)N)C(=O)N[C@@H](CO)C(=O)N[C@@H](Cc1c[nH]c2ccccc12)C(=O)N[C@@H](Cc1ccc(O)cc1)C(=O)N[C@@H](CC(N)=O)C(=O)N[C@@H](CCC(N)=O)C(=O)N[C@@H](CCCNC(=N)N)C(=O)N[C@@H](Cc1ccccc1)C(=O)N[C@@H](CCCCN)C(N)=O)[C@@H](C)O (stereo not given in full) (H-RIKPRKGYTRGC(X1)GNPNWGRSWYNQRFK-NH2)	15.3	35.2	25.4	24.4	23.1		
CC[C@H](C)[C@H](NC(=O)[C@@H](N)CCCNC(=N)N)C(=O)N[C@@H](CCCCN)C(=O)N1CCC[C@H]1C(=O)N[C@@H](CCCNC(=N)N)C(=O)N[C@@H](CCCCN)C(=O)NCC(=O)N[C@@H](Cc1ccc(O)cc1)C(=O)N[C@H](C(=O)N[C@@H](CCCNC(=N)N)C(=O)NCC(=O)N[C@@H](CSSCCC(=O)O[C@]1(CC)C(=O)OCc2c1cc1n(c2=O)Cc2cc3ccccc3nc2-1)C(=O)NCC(=O)N[C@@H](CC(N)=O)C(=O)N1CCC[C@H]1C(=O)N[C@@H](CC(N)=O)C(=O)N[C@@H](Cc1c[nH]c2ccccc12)C(=O)NCC(=O)N[C@@H](CCCNC(=N)N)C(=O)N[C@@H](CO)C(=O)N[C@@H](Cc1c[nH]c2ccccc12)C(=O)N[C@@H](Cc1ccc(O)cc1)C(=O)N[C@@H](CC(N)=O)C(=O)N[C@@H](CCC(N)=O)C(=O)N[C@@H](CCCNC(=N)N)C(=O)N[C@@H](Cc1ccccc1)C(=O)N[C@@H](CCCCN)C(N)=O)[C@@H](C)O (H-RIKPRKGYTRGC(X2)GNPNWGRSWYNQRFK-NH2)	5.76	20.4	6.42	6.25	10.9		
